Among the test systems are SNB-19 CNS; CAKI-1 renal; KM12 colon; A498 renal; SK-MEL-28 melanoma; EKVX NSCLC; OVCAR-8 ovarian; SK-MEL-5 melanoma; SN12C renal; RXF 393 renal.
Test in all cases: inhibition of tumour cell growth, NCI panel, 48 h

Several values for one entry are separate records, joined by “and”; a condition that tells them apart may be missing. Identical values can stand only once.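 Method: 48-hour compound exposure of cells in 96-well plates, five concentrations, linear interpolation of endpoints. Here, GI50 denotes the concentration required for 50% inhibition of growth. TGI is the concentration that stops growth completely.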 A value given as a limit tells only on which side of the number the result lay.

Turning to `O=C(NCCCN1CCN(CCCNC(=O)c2cnc3ccccc3n2)CC1)c1cnc2ccccc2n1`, the TGI in the experiment with SNB-19 CNS, in the experiment on CAKI-1 renal, in the experiment with KM12 colon, in the experiment on A498 renal, in the experiment with SK-MEL-28 melanoma and in the experiment with EKVX NSCLC was over 100 µM throughout. The TGI in the experiment with OVCAR-8 ovarian, in the experiment on SK-MEL-5 melanoma, with SN12C renal and in the experiment on RXF 393 renal was over 100 µM throughout.

In the case of `Nc1nc(N)c2cc(CNc3ccc(Cl)c(Cl)c3)ccc2n1`, the GI50 was 0.822 µM with SNB-19 CNS; 1.22 µM in the experiment on CAKI-1 renal; 0.866 µM in the experiment on KM12 colon; 1.76 µM in the experiment on A498 renal; 1.51 µM in the experiment with SK-MEL-28 melanoma; 0.742 µM with EKVX NSCLC. The GI50 in the experiment on OVCAR-8 ovarian was 0.513 µM; with SK-MEL-5 melanoma, 0.519 µM; in the experiment with SN12C renal, 0.732 µM; in the experiment with RXF 393 renal it was 0.748 µM. Also, the TGI with SNB-19 CNS is 2.09 µM; in the experiment on CAKI-1 renal it was 2.54 µM; in the experiment on KM12 colon, 2.13 µM; in the experiment with A498 renal it was 8.54 µM; in the experiment with SK-MEL-28 melanoma, 2.84 µM; in the experiment with EKVX NSCLC, 2.18 µM. In addition, the TGI was determined as 1.75 µM in the experiment on OVCAR-8 ovarian, 1.82 µM with SK-MEL-5 melanoma, 2.12 µM in the experiment on SN12C renal and 2.18 µM in the experiment on RXF 393 renal.

On to `NC(=O)c1ccccc1NC(=O)C(=O)C(C(=O)c1ccc2ccccc2c1)C1OC(=O)c2ccccc21` (stereo not drawn), for which the TGI with SNB-19 CNS was 20.7 µM; in the experiment on CAKI-1 renal, 33 µM; in the experiment on KM12 colon, 49 µM; in the experiment on A498 renal it was over 100 µM; with EKVX NSCLC, 75.6 µM; in the experiment on SK-MEL-5 melanoma, 24.6 µM. Besides, the values for the TGI in the experiment on SN12C renal and in the experiment with RXF 393 renal were 37.1 µM and 16.8 µM, respectively.

With `Cc1ccc(-n2c3c(c4c(CN5CCCCC5)c(O)ccc42)CCc2ccccc2C3=O)cc1`, the GI50 with SNB-19 CNS was over 100 µM; with CAKI-1 renal, over 100 µM; with KM12 colon it was over 100 µM; in the experiment on A498 renal, over 100 µM; with EKVX NSCLC it was over 100 µM; in the experiment on OVCAR-8 ovarian it was 46 µM. Also, the GI50 with SK-MEL-5 melanoma was over 100 µM; in the experiment with SN12C renal, over 100 µM; in the experiment on RXF 393 renal, 24.7 µM. The TGI in the experiment on SNB-19 CNS, with CAKI-1 renal, in the experiment on KM12 colon, in the experiment on A498 renal, in the experiment with EKVX NSCLC and with OVCAR-8 ovarian was over 100 µM throughout. The TGI in the experiment with SK-MEL-5 melanoma, with SN12C renal and with RXF 393 renal was over 100 µM throughout.

As for `CC1=C(C(=O)Nc2cccc(C(F)(F)F)c2)C(c2ccc(O)cc2)C(C(=O)Nc2cccc(C(F)(F)F)c2)=C(C)N1`, the TGI was over 100 µM in the experiment on SNB-19 CNS; 59.3 µM in the experiment on CAKI-1 renal; 33.2 µM with KM12 colon; 71.9 µM with A498 renal; 47.7 µM in the experiment with SK-MEL-28 melanoma; 58.6 µM with EKVX NSCLC. For the same compound, the TGI in the experiment with OVCAR-8 ovarian amounted to 76.6 µM; in the experiment with SK-MEL-5 melanoma, 33.6 µM; with RXF 393 renal, 36.9 µM.

Take `O=S(=O)(NCCNc1nccc(-c2c(-c3cccc(O)c3)nc3sccn23)n1)c1ccc(F)cc1`: the GI50 was 16.5 µM in the experiment on SNB-19 CNS; 3.69 µM with CAKI-1 renal; 4.36 µM in the experiment with KM12 colon; 7.58 µM in the experiment with A498 renal; 0.66 µM in the experiment with SK-MEL-28 melanoma; 4.61 µM in the experiment with OVCAR-8 ovarian. For the same compound, the figures for the GI50 with SK-MEL-5 melanoma, in the experiment on SN12C renal and in the experiment with RXF 393 renal were 1.61 µM, 4.26 µM and 2.44 µM, respectively. Besides, the TGI in the experiment on SNB-19 CNS amounted to 75.3 µM; in the experiment on CAKI-1 renal, 40.5 µM; in the experiment on KM12 colon, 16.2 µM; in the experiment with A498 renal, 25.2 µM; with SK-MEL-28 melanoma, 24 µM; in the experiment with OVCAR-8 ovarian, 39.3 µM. Moreover, the figures for the TGI in the experiment with SK-MEL-5 melanoma, in the experiment with SN12C renal and in the experiment on RXF 393 renal were 3.98 µM, 44.9 µM and 12.5 µM, respectively.

Take `Cn1cc(-c2csc(-c3c[nH]c4ncccc34)n2)c2cc(Br)cnc21`: the GI50 with SNB-19 CNS is 6.74 µM; in the experiment with CAKI-1 renal, 1.56 µM; in the experiment with KM12 colon, 5.7 µM; in the experiment with A498 renal it was 10.9 µM; in the experiment on EKVX NSCLC, 1.27 µM; with OVCAR-8 ovarian, 3.72 µM. Moreover, in the experiment on RXF 393 renal, the GI50 is 2.05 µM. Further, the TGI in the experiment with SNB-19 CNS, with CAKI-1 renal, with KM12 colon, in the experiment with A498 renal, in the experiment with EKVX NSCLC and in the experiment with OVCAR-8 ovarian was over 100 µM in each case. In addition, the TGI with RXF 393 renal was 8.63 µM.

For `COC(=O)[C@]12CC[C@@H](C)[C@H](C)[C@@H]1C1=CC[C@@H]3[C@@]4(C)C[C@@H](OC(=O)c5ccco5)[C@H](O)[C@@](C)(CO)[C@@H]4[C@H](O)C[C@@]3(C)[C@]1(C)CC2`, the GI50 with SNB-19 CNS was 3.47 µM; in the experiment with CAKI-1 renal, 2.99 µM; with KM12 colon, 2.62 µM; in the experiment with A498 renal, 2.5 µM; in the experiment on SK-MEL-28 melanoma it was 2.17 µM; with EKVX NSCLC, 2.78 µM. For the same compound, the GI50 in the experiment on OVCAR-8 ovarian was 3.37 µM; in the experiment on SK-MEL-5 melanoma, 1.99 µM; in the experiment on RXF 393 renal, 1.66 µM. Further, the TGI with SNB-19 CNS stood at 15 µM; in the experiment on CAKI-1 renal it was 10.9 µM; in the experiment on KM12 colon, 6.77 µM; with A498 renal it was 7.75 µM; with SK-MEL-28 melanoma it was 4.71 µM; in the experiment with EKVX NSCLC it was 8.67 µM. In addition, the TGI with OVCAR-8 ovarian stood at 10.4 µM; with SK-MEL-5 melanoma, 4.09 µM; with RXF 393 renal, 3.34 µM.

In the case of `N/C(=N\O)c1ncc(-c2ccc(C(F)(F)F)cc2)c(NC2CCCCCC2)n1`, the GI50 with SNB-19 CNS was 3.27 µM; in the experiment with CAKI-1 renal it was 5.71 µM and 1.69 µM; in the experiment with KM12 colon it was 6.51 µM and 3.13 µM; in the experiment with A498 renal, 1.96 µM; with SK-MEL-28 melanoma, 5.38 µM; in the experiment with OVCAR-8 ovarian it was 4.6 µM and 2.19 µM. For the same compound, the GI50 with SK-MEL-5 melanoma is 4.66 µM and 3.44 µM; in the experiment on SN12C renal it was 5.79 µM and 3.05 µM; with RXF 393 renal, 2.74 µM. Besides, the TGI in the experiment with SNB-19 CNS turned out to be 13.8 µM; with CAKI-1 renal it was 8.1 µM; in the experiment on KM12 colon, 13.1 µM; with A498 renal, 15.8 µM; with SK-MEL-28 melanoma, 19 µM; with OVCAR-8 ovarian it was 13.4 µM. Moreover, the figures for the TGI with SK-MEL-5 melanoma, in the experiment on SN12C renal and in the experiment with RXF 393 renal were 15.5 µM, 14.5 µM and 11.6 µM, respectively.

The record behind these values is PubChem BioAssay (NCI).
